Measured values as given in patent US20070244153A1 (priority 2004, published 2007).

How the values were obtained:
Format in all cases: in vivo
[1] = system: Phytophthora infestans; conditions: 250 ppm spray, tomato seedling 4-leaf stage, 4th day after inoculation; untreated not less than 60%
[2] = system: Pseudoperonospora cubensis; test: Controlling effect against cucumber downy mildew (spray on cucumber seedlings, 250 ppm); conditions: 250 ppm spray, cucumber seedling 1-leaf stage, 7th day after inoculation; untreated 60 to 80%
Procedure: A solution of the compound in acetone was diluted with water to 250 ppm, and the solution was sprayed to the cucumber seedling (breed: Sagamihangbak, two per plastic pot having a diameter of 7.5 cm) at 1-leaf stage in an amount of 10 mL of the compound/pot. After air-drying, the pot was transferred to a moist chamber provided in the greenhouse, and inoculated by spray with a zoosporic suspension of Pseudoperonospora cubensis. On the 7th day after inoculation the infected area rate for the leaves was examined. Evaluation was carried out by the following criteria.
The infected area rate for untreated groups in the examination was 60 to 80%.

[3] = system: Plasmopara viticola; test: Controlling effect against grape downy mildew (leaf disk immersion, 250 ppm); conditions: grape leaf disk immersed 3 hours, 10th day after inoculation, untreated 60 to 70%
Procedure: The developed leaf of grape seedling (breed: Cabernet Sauvignon) grown in 1/2000 a pot was cut and prepared a leaf disk having a diameter of 32 mm. A solution of the compound in acetone was diluted with water to 250 ppm, and the leaf disk was immersed for 3 hours. The disk was taken from the agent solution, subjected to air-drying, and then inoculated by spray with a zoosporangia suspension of Plasmopara viticola. The test disk was incubated at 18° C. for 12 hours in a light-dark light cycle. On the 10th day after inoculation the infected area rate for the leaf disk was examined. Evaluation was carried out by the following criteria. The infected area rate for the untreated groups in the examination was 60 to 70%.

Compound	Effect: controlling effect against tomato late blight (infected area rate) [1]	Effect: controlling effect against cucumber downy mildew (infected area rate) [2]	Effect: controlling effect against grape downy mildew (infected area rate) [3]
CCC[C@H](NC(=O)OC(C)(C)C)C(=O)N[C@H](CNC(=O)c1ccc(C)cc1)C(C)C [compound 40, N-[2-methyl-1-(S)-[[(4-methylbenzoyl)amino]methyl]propyl]2-(S)-[(1,1-dimethylethyloxycarbonyl)amino]valeramide]	A (Infected area rate of less than 5%)	A (the infected area rate of less than 5%)	A (the infected area rate of less than 5%)
CCOC(=O)N[C@H](C(=O)N[C@H](CNC(=O)c1cc2ccccc2o1)C(C)(C)C)C(C)C [Compound No. 714, N-[1-(S)-[[(benzofuran-2-carbonyl)amino]methyl)-2,2-dimethylpropyl][3-methyl-2-(S)-[N-(ethyloxycarbonyl)amino]]butyramide]	A (Infected area rate of less than 5%)	A (the infected area rate of less than 5%)	A (the infected area rate of less than 5%)
Cc1ccc(C(=O)N[C@@H](CNC(=O)[C@@H](NC(=O)OCC(C)C)C(C)C)C(C)C)cc1 [Compound No. 274, N-[3-methyl-2-(R)-[(4-methylbenzoyl)amino]butyl]3-methyl-2-(S)-[(2-methylpropyloxycarbonyl)amino]butyramide]	A (Infected area rate of less than 5%)	B (the infected area rate of 5% to less than 50%)	
CC(C)OC(=O)N[C@H](C(=O)N[C@H](CNC(=O)C1COc2ccccc2O1)C(C)C)C(C)C (mixture of isomers) [Compound No. 899, N-[2-methyl-1-(S)-[[[(1,4-benzodioxane)-2-(RS)-carbonyl]amino]methyl]propyl][3-methyl-2-(S)-[N-(1-methylethyloxycarbonyl)amino]]butyramide]	A (Infected area rate of less than 5%)	A (the infected area rate of less than 5%)	B (the infected area rate of 5% to less than 50%)
Cc1ccc(C(=O)NCC(NC(=O)[C@@H](NC(=O)OC(C)C)C(C)C)C(C)C)cc1 (mixture of isomers) [Compound No. 151, N-[2-methyl-1-(RS)-[[(4-methylbenzoyl)amino]methyl]propyl]3-methyl-2-(S)-[(1-methylethyloxycarbonyl)amino]butyramide]	A (Infected area rate of less than 5%)	B (the infected area rate of 5% to less than 50%)	
CCSC(=O)N[C@H](C(=O)N[C@H](CNC(=O)c1cc2ccccc2o1)C(C)C)C(C)C [Compound No. 793, N-[1-(S)-[[(benzofuran-2-carbonyl)amino]methyl]-2-methylpropyl][3-methyl-2-(S)-(ethylthiocarbonylamino)]butyramide]	A (Infected area rate of less than 5%)	A (the infected area rate of less than 5%)	A (the infected area rate of less than 5%)
CC(C)COC(=O)N[C@H](C(=O)N[C@H](CNC(=O)c1ccc(Cl)cc1)C(C)C)C(C)C [Compound No. 205, N-[1-(S)-[[(4-chlorobenzoyl)amino]methyl]-2-methylpropyl]3-methyl-2-(S)-[(2-methylpropyloxycarbonyl)amino]butyramide]	A (Infected area rate of less than 5%)	A (the infected area rate of less than 5%)	B (the infected area rate of 5% to less than 50%)
Cc1ccccc1C(=O)NC[C@@H](NC(=O)[C@@H](NC(=O)OC(C)C)C(C)C)C(C)C [Compound No. 143, N-[2-methyl-1-(S)-[[(2-methylbenzoyl)amino]methyl]propyl]3-methyl-2-(S)-[(1-methylethyloxycarbonyl)amino]butyramide]	A (Infected area rate of less than 5%)	B (the infected area rate of 5% to less than 50%)	
Cc1ccc(C(=O)N[C@@H](CNC(=O)[C@@H](NC(=O)OCc2ccccc2)C(C)C)C(C)C)cc1 [Compound No. 276, N-[3-methyl-2-(R)-[(4-methylbenzoyl)amino]butyl]2-(S)-[(benzyloxycarbonyl)amino]-3-methylbutyramide]	B (Infected area rate of 5% to less than 50%)		
CC[C@H](C)[C@@H](CNC(=O)c1ccc(C)cc1)NC(=O)[C@@H](NC(=O)OC)C(C)C [Compound No. 306, N-[2-(S)-methyl-1-(S)-[[(4-methylbenzoyl)amino]methyl]butyl]3-methyl-2-(S)-[(methyloxycarbonyl)amino]butyramide]	A (Infected area rate of less than 5%)	A (the infected area rate of less than 5%)	A (the infected area rate of less than 5%)
CC(C)[C@H](NC(=O)OCC1CCCO1)C(=O)N[C@H](CNC(=O)c1cc2ccccc2o1)C(C)C (stereo partly drawn) [Compound No. 786, N-[1-(S)-[[(benzofuran-2-carbonyl)amino]methyl]-2-methylpropyl]3-methyl-2-(S)-[[(tetrahydrofuran-2-methyl)oxycarbonyl]amino]butyramide]	A (Infected area rate of less than 5%)	A (the infected area rate of less than 5%)	
CC(C)OC(=O)N[C@H](C(=O)N[C@H](CNC(=O)c1cc2ccccc2o1)C(C)C)C(C)C [Compound No. 775, N-[2-methyl-1-(S)-[[(benzofuran-2-carbonyl)amino]methyl]propyl][3-methyl-2-(S)-[N-(1-methylethyloxycarbonyl)amino]]butyramide]	A (Infected area rate of less than 5%)	A (the infected area rate of less than 5%)	A (the infected area rate of less than 5%)
CCOC(=O)N[C@H](C(=O)N[C@H](CNC(=O)c1cc2ccccc2o1)C(C)C)C(C)C [Compound No. 772, N-[2-methyl-1-(S)-[[(benzofuran-2-carbonyl)amino]methyl]propyl][3-methyl-2-(S)-[N-(ethyloxycarbonyl)amino]]butyramide]	A (Infected area rate of less than 5%)	A (the infected area rate of less than 5%)	A (the infected area rate of less than 5%)
Cc1ccc(C(=O)NC[C@@H](NC(=O)[C@@H](NC(=O)OC(C)(C)C)c2ccccc2)C(C)C)cc1 [Compound No. 60, N-[2-methyl-1-(S)-[[(4-methylbenzoly)amino]methyl]propyl]2-(S)-[(1,1-dimethylethyloxycarbonyl)amino]-2-phenyl acetamide]	B (Infected area rate of 5% to less than 50%)		
Cc1ccc(C(=O)NC[C@@H](NC(=O)C(NC(=O)OC(C)(C)C)C2CCOC2)C(C)C)cc1 (mixture of isomers) [Compound No. 69, N-[2-methyl-1-(S)-[[(4-methylbenzoyl)amino]methyl]propyl]2-(RS)-[(1,1-dimethylethyloxycarbonyl)amino]-2-(tetrahydrofuran-3-yl)acetamide]	A (Infected area rate of less than 5%)	A (the infected area rate of less than 5%)	B (the infected area rate of 5% to less than 50%)
Cc1ccc(C(=O)N[C@H](CNC(=O)[C@@H](NC(=O)OCc2ccccc2)C(C)C)C(C)C)cc1 [Compound No. 281, N-[3-methyl-2-(S)-[(4-methylbenzoyl)amino]butyl]2-(S)-[(benzyloxycarbonyl)amino]-3-methylbutyramide]	B (Infected area rate of 5% to less than 50%)	B (the infected area rate of 5% to less than 50%)	
CC(C)OC(=O)N[C@H](C(=O)NC[C@@H](NC(=O)c1cc2ccccc2o1)C(C)C)C(C)C [Compound No. 675, N-[[2-(S)-[(benzofuran-2-carbonyl)amino]-3-methyl]butyl][2-(S)-[(1-methylethyloxycarbonyl)amino]-3-methyl]butyramide]	A (Infected area rate of less than 5%)	B (the infected area rate of 5% to less than 50%)	
